Data: US20050239656A1, “Pyridine compounds or salts thereof and herbicides containing the same” (priority 2002, published 2005)

Tested on: barnyardgrass
Test: Test Example 1: foliage treatment, upland pot test
Format: in vivo, Echinochloa crus-galli L.
Conditions: active ingredient 500 g/ha, observed 18th to 23rd day, 0 = non-treated, 100 = complete kill
Summary of the method: (§1)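 Applied as a post-emergence foliar spray: formulated compound diluted to 500 L/ha with spreader at 0.1% (v/v). Treatment timing—rice at 1.2–2.6, wheat at 1.3–2.4, barnyardgrass at 1.3–2.8, soybean at 0.1–0.4 leaf stage. Scored visually on a 0–100% control scale after 18–23 days.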

Compound | Growth controlling degree (%) Barnyardgrass [%]
COc1ccc(CC(=O)N(C)C(c2cnccc2C(F)(F)F)C(C)C)cc1 (centres unmarked) [I-38] | 70
CCC(C)C(c1cnccc1C(F)(F)F)N(C)C(=O)COc1ccccc1 (centres unmarked) [I-261] | 70

Tested on: velvetleaf
Test: Test Example 1: foliage treatment, upland pot test
Format: in vivo, Abutilon theophrasti MEDIC.
Conditions: active ingredient 500 g/ha, observed 18th to 23rd day, 0 = non-treated, 100 = complete kill

Compound | Growth controlling degree (%) Velvetleaf [%]
COc1ccc(CC(=O)N(C)C(c2cnccc2C(F)(F)F)C(C)C)cc1 (centres unmarked) [I-38] | 90
CCC(C)C(c1cnccc1C(F)(F)F)N(C)C(=O)COc1ccccc1 (centres unmarked) [I-261] | 50

Tested on: japanese bulrush
Test: Test Example 3: paddy pot test, application under submerged conditions
Format: in vivo, Scirpus juncoides
Conditions: active ingredient 250 g/ha; submerged application at 0.5 leaf stage; visually observed 14 days after application; 0 = non-treated, 100 = complete kill
Summary of the method: (§2)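 After sowing seeds and planting wapato tubers in flooded paddy soil, an aqueous dilution of the formulated compound was added to the 3–4 cm flood water at early leaf stage. Percent growth control relative to the untreated plot was assessed visually on day 14.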

Compound | Growth controlling degree (%) Japanese bulrush [%]
COc1ccc(CC(=O)N(C)C(c2cnccc2C(F)(F)F)C(C)C)cc1 (centres unmarked) [I-38] | 70
CCC(C)C(c1cnccc1C(F)(F)F)N(C)C(=O)COc1ccccc1 (centres unmarked) [I-261] | 95

Tested on: rice (var. Nihonbare)
Test: Test Example 3: paddy pot test, transplanted rice
Format: in vivo, Oryza sativa L.
Conditions: active ingredient 250 g/ha, applied 4th day after transplantation, visually observed 21st day after application, 0 = non-treated, 100 = complete kill
Summary of the method: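 Rice (2-leaf stage) was transplanted 3 cm deep into puddled, leveled paddy soil under 3–4 cm flooding. On day 4 after transplanting, diluted wettable powder or emulsifiable concentrate was pipetted onto the water at a predetermined active-ingredient dose. Growth control (0 = untreated, 100 = complete kill) was scored visually 21 days later.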

Compound | Growth controlling degree (%) Rice [%]
COc1ccc(CC(=O)N(C)C(c2cnccc2C(F)(F)F)C(C)C)cc1 (centres unmarked) [I-38] | 30
CCC(C)C(c1cnccc1C(F)(F)F)N(C)C(=O)COc1ccccc1 (centres unmarked) [I-261] | 20

Tested on: barnyardgrass
Test: Test Example 3: paddy pot test, application under submerged conditions
Format: in vivo, Echinochloa crus-galli L.
Conditions: active ingredient 250 g/ha; submerged application at 0.5 leaf stage; visually observed 14 days after application; 0 = non-treated, 100 = complete kill
Summary of the method: as §2

Compound | Growth controlling degree (%) Barnyardgrass [%]
COc1ccc(CC(=O)N(C)C(c2cnccc2C(F)(F)F)C(C)C)cc1 (centres unmarked) [I-38] | 100
CCC(C)C(c1cnccc1C(F)(F)F)N(C)C(=O)COc1ccccc1 (centres unmarked) [I-261] | 100

Tested on: prickly sida
Test: Test Example 1: foliage treatment, upland pot test
Format: in vivo, Sida spinosa L.
Conditions: active ingredient 500 g/ha, observed 18th to 23rd day, 0 = non-treated, 100 = complete kill

Compound | Growth controlling degree (%) Prickly sida [%]
COc1ccc(CC(=O)N(C)C(c2cnccc2C(F)(F)F)C(C)C)cc1 (centres unmarked) [I-38] | 70
CCC(C)C(c1cnccc1C(F)(F)F)N(C)C(=O)COc1ccccc1 (centres unmarked) [I-261] | 60

Tested on: rice
Test: Test Example 1: foliage treatment, upland pot test
Format: in vivo, Oryza sativa L.
Conditions: crop, active ingredient 500 g/ha, observed 18th to 23rd day, 0 = non-treated, 100 = complete kill
Summary of the method: as §1

Compound | Growth controlling degree (%) Rice [%]
COc1ccc(CC(=O)N(C)C(c2cnccc2C(F)(F)F)C(C)C)cc1 (centres unmarked) [I-38] | 10
CCC(C)C(c1cnccc1C(F)(F)F)N(C)C(=O)COc1ccccc1 (centres unmarked) [I-261] | 20

Tested on: soybean
Test: Test Example 2: soil surface treatment, upland pot test
Format: in vivo, Glycine max Merr.
Conditions: active ingredient 500 g/ha, observed 20th to 28th day
Summary of the method: (§3)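 Upland soil in pots of 1/170,000 ha is sown; on day 1 after sowing the formulated compound (wettable powder or emulsifiable concentrate, predetermined a.i. amount, water volume 1,500 L/ha) is applied to the soil surface with a small sprayer. Percent control is judged by eye 20–28 days later.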

Compound | Growth controlling degree (%) Soyabean [%]
COc1ccc(CC(=O)N(C)C(c2cnccc2C(F)(F)F)C(C)C)cc1 (centres unmarked) [I-38] | 0

Same assay, conditions: active ingredient 500 g/ha, observed day 21, 0 = non-treated, 100 = complete kill

Compound | Growth controlling degree (%) Soyabean [%]
CCC(C)C(c1cnccc1C(F)(F)F)N(C)C(=O)COc1ccccc1 (centres unmarked) [I-261] | 20

Tested on: green foxtail
Test: Test Example 1: foliage treatment, upland pot test
Format: in vivo, Setaria viridis L.
Conditions: active ingredient 500 g/ha, observed 18th to 23rd day, 0 = non-treated, 100 = complete kill

Compound | Growth controlling degree (%) Green foxtail [%]
COc1ccc(CC(=O)N(C)C(c2cnccc2C(F)(F)F)C(C)C)cc1 (centres unmarked) [I-38] | 60
CCC(C)C(c1cnccc1C(F)(F)F)N(C)C(=O)COc1ccccc1 (centres unmarked) [I-261] | 60

Tested on: prickly sida
Test: Test Example 2: soil surface treatment, upland pot test
Format: in vivo, Sida spinosa L.
Conditions: active ingredient 500 g/ha, observed 20th to 28th day
Summary of the method: as §3

Compound | Growth controlling degree (%) Prickly sida [%]
COc1ccc(CC(=O)N(C)C(c2cnccc2C(F)(F)F)C(C)C)cc1 (centres unmarked) [I-38] | 100

Same assay, conditions: active ingredient 500 g/ha, observed day 21, 0 = non-treated, 100 = complete kill

Compound | Growth controlling degree (%) Prickly sida [%]
CCC(C)C(c1cnccc1C(F)(F)F)N(C)C(=O)COc1ccccc1 (centres unmarked) [I-261] | 98

Tested on: japanese ribbon wapato
Test: Test Example 3: paddy pot test, application under submerged conditions
Format: in vivo, Sagittaria pygniaea
Conditions: active ingredient 250 g/ha; submerged application at primary leaf stage; visually observed 14 days after application; 0 = non-treated, 100 = complete kill
Summary of the method: as §2

Compound | Growth controlling degree (%) Japanese ribbon wapato [%]
COc1ccc(CC(=O)N(C)C(c2cnccc2C(F)(F)F)C(C)C)cc1 (centres unmarked) [I-38] | 85
CCC(C)C(c1cnccc1C(F)(F)F)N(C)C(=O)COc1ccccc1 (centres unmarked) [I-261] | 70

Tested on: crabgrass
Test: Test Example 2: soil surface treatment, upland pot test
Format: in vivo, Digitaria sanguinalis L.
Conditions: active ingredient 500 g/ha, observed 20th to 28th day
Summary of the method: as §3

Compound | Growth controlling degree (%) Crabgrass [%]
COc1ccc(CC(=O)N(C)C(c2cnccc2C(F)(F)F)C(C)C)cc1 (centres unmarked) [I-38] | 90

Same assay, conditions: active ingredient 500 g/ha, observed day 21, 0 = non-treated, 100 = complete kill

Compound | Growth controlling degree (%) Crabgrass [%]
CCC(C)C(c1cnccc1C(F)(F)F)N(C)C(=O)COc1ccccc1 (centres unmarked) [I-261] | 100

Tested on: barnyardgrass
Test: as above
Format: in vivo, Echinochloa crus-galli L.
Conditions: active ingredient 500 g/ha, observed 20th to 28th day
Summary of the method: as §3

Compound | Growth controlling degree (%) Barnyardgrass [%]
COc1ccc(CC(=O)N(C)C(c2cnccc2C(F)(F)F)C(C)C)cc1 (centres unmarked) [I-38] | 100

Same assay, conditions: active ingredient 500 g/ha, observed day 21, 0 = non-treated, 100 = complete kill

Compound | Growth controlling degree (%) Barnyardgrass [%]
CCC(C)C(c1cnccc1C(F)(F)F)N(C)C(=O)COc1ccccc1 (centres unmarked) [I-261] | 90

Tested on: crabgrass
Test: Test Example 1: foliage treatment, upland pot test
Format: in vivo, Digitaria sanguinalis L.
Conditions: active ingredient 500 g/ha, observed 18th to 23rd day, 0 = non-treated, 100 = complete kill

Compound | Growth controlling degree (%) Crabgrass [%]
COc1ccc(CC(=O)N(C)C(c2cnccc2C(F)(F)F)C(C)C)cc1 (centres unmarked) [I-38] | 70
CCC(C)C(c1cnccc1C(F)(F)F)N(C)C(=O)COc1ccccc1 (centres unmarked) [I-261] | 60

Tested on: green foxtail
Test: Test Example 2: soil surface treatment, upland pot test
Format: in vivo, Setaria viridis L.
Conditions: active ingredient 500 g/ha, observed 20th to 28th day
Summary of the method: as §3

Compound | Growth controlling degree (%) Green foxtail [%]
COc1ccc(CC(=O)N(C)C(c2cnccc2C(F)(F)F)C(C)C)cc1 (centres unmarked) [I-38] | 80

Same assay, conditions: active ingredient 500 g/ha, observed day 21, 0 = non-treated, 100 = complete kill

Compound | Growth controlling degree (%) Green foxtail [%]
CCC(C)C(c1cnccc1C(F)(F)F)N(C)C(=O)COc1ccccc1 (centres unmarked) [I-261] | 100

Tested on: redroot pigweed
Test: Test Example 1: foliage treatment, upland pot test
Format: in vivo, Amaranthus retroflexus L.
Conditions: active ingredient 500 g/ha, observed 18th to 23rd day, 0 = non-treated, 100 = complete kill

Compound | Growth controlling degree (%) Redroot pigweed [%]
COc1ccc(CC(=O)N(C)C(c2cnccc2C(F)(F)F)C(C)C)cc1 (centres unmarked) [I-38] | 80
CCC(C)C(c1cnccc1C(F)(F)F)N(C)C(=O)COc1ccccc1 (centres unmarked) [I-261] | 50

Tested on: corn
Test: Test Example 2: soil surface treatment, upland pot test
Format: in vivo, Zea mays L.
Conditions: active ingredient 500 g/ha, observed 20th to 28th day
Summary of the method: as §3

Compound | Growth controlling degree (%) Corn [%]
COc1ccc(CC(=O)N(C)C(c2cnccc2C(F)(F)F)C(C)C)cc1 (centres unmarked) [I-38] | 10

Same assay, conditions: active ingredient 500 g/ha, observed day 21, 0 = non-treated, 100 = complete kill

Compound | Growth controlling degree (%) Corn [%]
CCC(C)C(c1cnccc1C(F)(F)F)N(C)C(=O)COc1ccccc1 (centres unmarked) [I-261] | 20

Tested on: soybean
Test: Test Example 1: foliage treatment, upland pot test
Format: in vivo, Glycine max Merr.
Conditions: crop, active ingredient 500 g/ha, observed 18th to 23rd day, 0 = non-treated, 100 = complete kill
Summary of the method: as §1

Compound | Growth controlling degree (%) Soybean [%]
COc1ccc(CC(=O)N(C)C(c2cnccc2C(F)(F)F)C(C)C)cc1 (centres unmarked) [I-38] | 60
CCC(C)C(c1cnccc1C(F)(F)F)N(C)C(=O)COc1ccccc1 (centres unmarked) [I-261] | 80

Tested on: corn
Test: Test Example 1: foliage treatment, upland pot test
Format: in vivo, Zea mays L.
Conditions: crop, active ingredient 500 g/ha, observed 18th to 23rd day, 0 = non-treated, 100 = complete kill
Summary of the method: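 In this upland pot foliage test, corn plants at 2.1 to 3.2 leaf stages were sprayed by a small size sprayer. The spray was a conventionally formulated wettable powder or emulsifiable concentrate weighed to a set active ingredient amount, diluted in water at 500 L/ha, plus 0.1% (v/v) agricultural spreader. Visual assessment on days 18 to 23 gave growth controlling degree (%), where 0 equals untreated and 100 means complete kill.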

Compound | Growth controlling degree (%) Corn [%]
COc1ccc(CC(=O)N(C)C(c2cnccc2C(F)(F)F)C(C)C)cc1 (centres unmarked) [I-38] | 40
CCC(C)C(c1cnccc1C(F)(F)F)N(C)C(=O)COc1ccccc1 (centres unmarked) [I-261] | 10

Tested on: velvetleaf
Test: Test Example 2: soil surface treatment, upland pot test
Format: in vivo, Abutilon theophrasti MEDIC.
Conditions: active ingredient 500 g/ha, observed 20th to 28th day
Summary of the method: as §3

Compound | Growth controlling degree (%) Velvetleaf [%]
COc1ccc(CC(=O)N(C)C(c2cnccc2C(F)(F)F)C(C)C)cc1 (centres unmarked) [I-38] | 0

Same assay, conditions: active ingredient 500 g/ha, observed day 21, 0 = non-treated, 100 = complete kill

Compound | Growth controlling degree (%) Velvetleaf [%]
CCC(C)C(c1cnccc1C(F)(F)F)N(C)C(=O)COc1ccccc1 (centres unmarked) [I-261] | 50

Tested on: rice
Test: as above
Format: in vivo, Oryza sativa L.
Conditions: active ingredient 500 g/ha, observed 20th to 28th day
Summary of the method: as §3

Compound | Growth controlling degree (%) Rice [%]
COc1ccc(CC(=O)N(C)C(c2cnccc2C(F)(F)F)C(C)C)cc1 (centres unmarked) [I-38] | 20

Same assay, conditions: active ingredient 500 g/ha, observed day 21, 0 = non-treated, 100 = complete kill

Compound | Growth controlling degree (%) Rice [%]
CCC(C)C(c1cnccc1C(F)(F)F)N(C)C(=O)COc1ccccc1 (centres unmarked) [I-261] | 20

Tested on: redroot pigweed
Test: as above
Format: in vivo, Amaranthus retroflexus L.
Conditions: active ingredient 500 g/ha, observed 20th to 28th day
Summary of the method: as §3

Compound | Growth controlling degree (%) Redroot pigweed [%]
COc1ccc(CC(=O)N(C)C(c2cnccc2C(F)(F)F)C(C)C)cc1 (centres unmarked) [I-38] | 80

Same assay, conditions: active ingredient 500 g/ha, observed day 21, 0 = non-treated, 100 = complete kill

Compound | Growth controlling degree (%) Redroot pigweed [%]
CCC(C)C(c1cnccc1C(F)(F)F)N(C)C(=O)COc1ccccc1 (centres unmarked) [I-261] | 70
